Publication PMC8301576 (Clinical and Translational Science, 2021)
Values joined by “and” are separate entries in the source; they are usually repeats but may differ in a detail not shown here. Equal values may be shown once. Read-outs that look alike come from different tables or passages of the source. Blank lines part the entries; values can stand above or below the molecule they belong to.

Key:
OAT3 = molecular target: T1, OAT3 (Homo sapiens, UniProt Q8TCC7); experiment: Trial 2: clinical DDI, furosemide in presence of DM-4103 vs furosemide alone; type: in vivo; settings: at clinically relevant concentrations
T1 sequence (Q8TCC7 1-542): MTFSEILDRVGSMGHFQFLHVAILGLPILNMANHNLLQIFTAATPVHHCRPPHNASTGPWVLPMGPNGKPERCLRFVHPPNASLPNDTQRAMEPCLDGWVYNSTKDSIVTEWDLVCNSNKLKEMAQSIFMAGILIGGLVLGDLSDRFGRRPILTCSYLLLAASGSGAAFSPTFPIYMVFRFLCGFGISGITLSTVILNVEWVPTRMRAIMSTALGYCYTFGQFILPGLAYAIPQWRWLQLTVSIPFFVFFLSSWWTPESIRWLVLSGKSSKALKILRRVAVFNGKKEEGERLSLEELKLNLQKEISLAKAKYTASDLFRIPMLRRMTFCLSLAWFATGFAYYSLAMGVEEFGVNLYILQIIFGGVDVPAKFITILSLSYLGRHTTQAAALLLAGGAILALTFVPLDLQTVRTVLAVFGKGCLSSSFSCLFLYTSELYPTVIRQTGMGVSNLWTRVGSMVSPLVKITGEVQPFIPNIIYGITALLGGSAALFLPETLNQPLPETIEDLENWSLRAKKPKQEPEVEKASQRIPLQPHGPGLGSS

[1] = Earlier clinical data on TLV and DM-4103; type: in vivo, human; settings: from elimination half-life
[2] = cited from earlier work
OATP1B1 = molecular target: T2, OATP1B1 (Homo sapiens, UniProt Q9Y6L6); type: in vivo
T2 sequence (Q9Y6L6 1-691): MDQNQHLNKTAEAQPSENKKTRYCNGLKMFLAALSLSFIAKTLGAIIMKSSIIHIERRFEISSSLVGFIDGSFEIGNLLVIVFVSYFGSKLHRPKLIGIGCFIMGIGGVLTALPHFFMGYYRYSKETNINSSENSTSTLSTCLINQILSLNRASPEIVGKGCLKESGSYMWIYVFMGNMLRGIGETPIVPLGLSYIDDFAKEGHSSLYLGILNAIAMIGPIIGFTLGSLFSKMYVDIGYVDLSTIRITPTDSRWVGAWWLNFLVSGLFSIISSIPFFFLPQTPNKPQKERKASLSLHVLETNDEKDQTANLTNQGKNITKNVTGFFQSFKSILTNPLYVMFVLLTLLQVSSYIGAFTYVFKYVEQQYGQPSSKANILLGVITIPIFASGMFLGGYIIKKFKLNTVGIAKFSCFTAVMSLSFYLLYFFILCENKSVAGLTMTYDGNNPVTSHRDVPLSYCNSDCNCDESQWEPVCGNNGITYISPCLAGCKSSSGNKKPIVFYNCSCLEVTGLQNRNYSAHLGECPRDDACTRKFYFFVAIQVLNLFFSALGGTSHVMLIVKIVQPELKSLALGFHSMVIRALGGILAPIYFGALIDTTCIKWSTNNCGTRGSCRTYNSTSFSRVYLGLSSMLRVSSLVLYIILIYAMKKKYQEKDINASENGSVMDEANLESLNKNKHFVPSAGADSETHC

Plasma protein binding = type: in vitro ADME
[3] = Trial 1: plasma pharmacokinetics in healthy subjects; type: in vivo, human
[4] = Trial 2: plasma pharmacokinetics in healthy subjects; type: in vivo, human; settings: 48 h postdose after 7 days 300 mg TLV q.d.
[5] = Trial 2: treatment-emergent adverse events; type: in vivo, human
[6] = test system: sodium‐dependent taurocholate co‐transporting polypeptide (NTCP); settings: cited from earlier work
BCRP [7] = molecular target: T3, BCRP (Homo sapiens, UniProt Q9UNQ0); experiment: Trial 1: clinical DDI, rosuvastatin with TLV vs rosuvastatin alone; type: in vivo
T3 sequence (Q9UNQ0 1-655): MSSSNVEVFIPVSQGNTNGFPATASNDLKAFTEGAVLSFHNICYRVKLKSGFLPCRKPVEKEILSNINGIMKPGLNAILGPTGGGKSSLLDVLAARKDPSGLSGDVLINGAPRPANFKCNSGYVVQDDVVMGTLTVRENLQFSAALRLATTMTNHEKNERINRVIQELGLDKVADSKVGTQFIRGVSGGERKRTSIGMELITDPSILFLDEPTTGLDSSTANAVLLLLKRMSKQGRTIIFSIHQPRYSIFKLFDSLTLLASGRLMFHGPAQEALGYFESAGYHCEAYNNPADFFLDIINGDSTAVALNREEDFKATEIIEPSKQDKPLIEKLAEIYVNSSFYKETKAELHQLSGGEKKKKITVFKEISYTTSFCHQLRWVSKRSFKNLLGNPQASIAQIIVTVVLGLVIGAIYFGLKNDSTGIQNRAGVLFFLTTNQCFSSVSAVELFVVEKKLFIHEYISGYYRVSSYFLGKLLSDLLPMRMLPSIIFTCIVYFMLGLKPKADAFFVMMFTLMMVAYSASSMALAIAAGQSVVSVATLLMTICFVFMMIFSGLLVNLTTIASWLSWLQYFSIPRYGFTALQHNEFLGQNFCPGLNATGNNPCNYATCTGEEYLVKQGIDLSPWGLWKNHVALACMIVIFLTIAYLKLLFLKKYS

[8] = Trial 1: treatment-emergent adverse events; type: in vivo, human
[9] = predicted; cited from earlier work
[10] = cited from earlier work; for Solubility: pH independent
BCRP [11] = molecular target: T3, BCRP; experiment: Prazosin transport in MDCKII BCRP expressing cells; settings: 90-mg TLV dose (200 µmol) assumed completely soluble in 250 ml
[12] = test system: sandwich‐cultured human hepatocytes; settings: cited from earlier work
[13] = rosuvastatin + 90 mg tolvaptan vs rosuvastatin alone, n = 14
[14] = trial 2, period 2 (TLV alone, 300 mg q.d.)
[15] = trial 1, period 3 (TLV alone, 300 mg q.d.)

- Clinical inhibition of OAT3 (OAT3): not an inhibitor
- Time to steady-state concentrations after start of TLV dosing [1]: ~ 8 weeks
- Clinical inhibition of OATP1B1 (OATP1B1; at clinically relevant concentrations): not an inhibitor
- Plasma protein binding (Plasma protein binding): greater than 99.8%
- Plasma concentration, mean (SD) ([3]; trial 1, 48 h postdose after 7 days 300 mg TLV q.d.): 7240 (1880) ng/ml
- Plasma concentration, mean (SD) [4]: 6430 (2030) ng/ml
SMILES: Cc1ccccc1C(=O)Nc1ccc(C(=O)Nc2ccc(Cl)cc2C(=O)CCC(=O)O)c(C)c1 [DM‐4103]
- Mean steady-state plasma concentration ([2]; 90 + 30 mg TLV regimen in subjects with ADPKD, ref data on file): ~ 7500 ng/ml and ~15.7 µM
- Elimination half-life [2]: ~ 180 h
- Plasma concentrations ([2]; first 2 h following a 90 mg TLV dose, ref data on file): less than 100 ng/ml

SMILES: NS(=O)(=O)c1cc(C(=O)O)c(NCc2ccco2)cc1Cl [Furosemide, furosemide]
- TEAE incidence: polyuria ([5]; trial 2, period 1 (furosemide alone)): 64.3%
- TEAE incidence: headache ([5]; trial 2, period 3 (furosemide in presence of DM-4103)): 21.4%

- Geometric mean ratio (90% CI), AUC∞ (BCRP [7]; rosuvastatin + 90 mg tolvaptan vs rosuvastatin alone, n = 6): 1.281^a 1.148–1.429
- Geometric mean ratio (90% CI), AUCt (BCRP [7]; [13]): 1.69
- Geometric mean ratio (90% CI), Cmax (BCRP [7]; [13]): 1.54
- Geometric mean ratio (90% CI), AUC∞ (OATP1B1; rosuvastatin in presence of DM-4103 vs rosuvastatin alone, n = 5): 0.998^b 0.876–1.138
- Tmax ([3]; 5 mg ROS alone, median (minimum-maximum)): 3.50 (2.00–6.00) h
- AUC(0-inf) ([3]; human, plasma, oral, 5 mg, AUC∞, 5 mg ROS alone, minimum-maximum, n = 7): 20.3 to 36 ng·h/mL
- CL/F ([3]; human, plasma, oral, 5 mg, CL/F, 5 mg ROS alone, minimum-maximum, n = 7): 28.5 to 68.2 mL/min/kg
- half-life ([3]; human, plasma, oral, 5 mg, t1/2,z, 5 mg ROS alone, minimum-maximum, n = 7): 2.4 to 4.3 h
SMILES: CC(C)c1nc(N(C)S(C)(=O)=O)nc(-c2ccc(F)cc2)c1/C=C/[C@@H](O)C[C@@H](O)CC(=O)O [ROS, rosuvastatin]
- Share of rosuvastatin uptake accounted for by NTCP alone ([6]; human hepatocyte studies): ~ 35%
- TEAE incidence: nausea ([8]; trial 1, period 1 (rosuvastatin)): 12.5%
- TEAE incidence: headache ([8]; trial 1, period 3 (rosuvastatin in presence of DM-4103)): 14.3%

- Clinical inhibition of BCRP (BCRP [7]; 90 mg TLV with 5 mg rosuvastatin calcium): No clinically relevant inhibition
- Predicted concentration of dose in 250 ml (Igut) (BCRP [11]): 800 µM
SMILES: Cc1ccccc1C(=O)Nc1ccc(C(=O)N2CCCC(O)c3cc(Cl)ccc32)c(C)c1 (stereo not shown) [TLV, Tolvaptan]
- Liver:blood ratio [9]: 38.76
- TEAE incidence: constipation [5, 14]: 14.3%
- TEAE incidence: dizziness [5, 14]: 14.3%
- TEAE incidence: dry mouth [5, 14]: 21.4%
- TEAE incidence: headache [5, 14]: 14.3%
- TEAE incidence: insomnia [5, 14]: 14.3%
- TEAE incidence: polyuria [5, 14]: 100%
- TEAE incidence: thirst [5, 14]: 92.9%
- Increase of in vitro solubility by spray-dried formulation ([10]; TLV tablets, spray-dried technique): up to sevenfold
- Solubility [10]: ~ 0.01 g/250 ml
- Solubility ([10]; in Discussion): about 0.01 mg/250 ml and ~ 0.09 µM
- NTCP inhibition ([6]; IC50 value higher than Cmax): inhibitor of NTCP
- Accumulation in sandwich-cultured human hepatocytes [12]: at least 10 fold
- Safety and tolerability ([2]; 300 mg TLV for 5 days, healthy subjects): safe and well‐tolerated
- half-life [2]: about 3.5 h
- TEAE incidence: constipation [8, 15]: 14.3%
- TEAE incidence: dry mouth [8, 15]: 14.3%
- TEAE incidence: nausea [8, 15]: 21.4%
- TEAE incidence: pollakiuria [8, 15]: 71.4%
